Read-outs that look alike come from different tables or passages of the source.
What was measured:
PKA catalytic subunit [1] = molecular target: T1, PKA catalytic subunit (Homo sapiens, UniProt P17612); test: PKA-catalyzed phosphorylation of peptide/peptidomimetic substrates, [γ-32P]ATP, phosphocellulose paper binding; assay type: biochemical; details: ATP 100 μM, 30°C, 50 mM TRIS/HCl, pH 7; for 10^2 kcat: Michaelis-Menten fit, value is kcat multiplied by 10^2; for 10^2 kII (second order rate constant): from the initial linear part of the Michaelis-Menten plot, value is kII multiplied by 10^2; for Km: substrate phosphorylation by PKA catalytic subunit, Michaelis-Menten fit of initial velocities, substrate concentration varied
Method: The phosphorylation reactions followed the classical Michaelis-Menten rate equation and therefore all substrates were characterized by the Km and kcat values, which correspond to the constant ATP concentration of 0.1 mM. The initial linear part of the Mihaelis-Menten plot was used for the calculation of the second order rate constants kII as described in [10] and these values are also listed in Table 1. Agreement between the parameters kII and values of the ratio of kcat/Km for substrates confirms the applicability of the Michelis-Menten rate equation for the description of the kinetic data.
The method of kinetic measurements was described in our previous article and was based on utilizing the radioactive ATP with [^32P]phosphate in γ-position. The phosphorylated substrates were bound onto Whatman phosphocellulose paper and the paper-bound radioactivity was counted. Linear plots between filter-bound radioactivity and time were used for calculating the initial velocity values of the phosphorylation reaction, which were thereafter processed by the classical Michaelis-Menten rate equation. Kinetic experiments were made at constant ATP concentration (100 μM) and the Km and kcat values were calculated for peptidomimetic substrates, concentrations of which were varied in the reaction mixture.

PKA catalytic subunit [2] = molecular target: T1, PKA catalytic subunit; details: parent peptide, cited from earlier work
Method: Table 1 Phosphorylation of N^β-methylated peptidomimetic substrates by PKA catalytic subunit at ATP concentration 100 μM, 30°C, 50 mM TRIS/HCl, pH 7 | column: Km (μM); 10^2 kcat (μmole mg^-1 s^-1); 10^2 kII (L mg^-1 s^-1)

| Substance | 10^2 kcat (PKA catalytic subunit [1]) | 10^2 kII (second order rate constant) (PKA catalytic subunit [1]) | Km (PKA catalytic subunit [1]) | Km (PKA catalytic subunit [2]; phosphorylation by PKA) | 10^2 kII (second order rate constant) (PKA catalytic subunit [2]; value is kII multiplied by 10^2) | 10^2 kcat (PKA catalytic subunit [2]; value is kcat multiplied by 10^2) |
| --- | --- | --- | --- | --- | --- | --- |
| RRASVA [III, RRASVA analog with one N^β-Me-aza-β^3-amino acid residue; likely Ala at position -1] | 5.5 ± 0.3 μmole mg^-1 s^-1 | 0.034 ± 0.005 L mg^-1 s^-1 | 91 ± 15 µM |  |  |  |
| RRASVA [I, RRASVA analog with one N^β-Me-aza-β^3-amino acid residue; likely the N-terminal Arg] | 24.4 ± 1.5 μmole mg^-1 s^-1 | 0.098 ± 0.010 L mg^-1 s^-1 | 209 ± 24 µM |  |  |  |
| RRASVA [II, RRASVA analog with one N^β-Me-aza-β^3-amino acid residue; likely the second Arg] | 11.9 ± 1.0 μmole mg^-1 s^-1 | 0.11 ± 0.07 L mg^-1 s^-1 | 79 ± 18 µM |  |  |  |
| RRASVA [IV, RRASVA analog with one N^β-Me-aza-β^3-amino acid residue; likely Val] | 16 ± 2.0 μmole mg^-1 s^-1 | 0.12 ± 0.02 L mg^-1 s^-1 | 118 ± 36 µM |  |  |  |
| RRASVA |  |  |  | 11.1 ± 3.5 µM | 3.2 ± 0.1 L mg^-1 s^-1 | 36 ± 3 μmole mg^-1 s^-1 |
| RRASVA [RRASVA analog with one N^β-Me-aza-β^3-amino acid residue; likely the C-terminal Ala] | 5.0 ± 0.4 μmole mg^-1 s^-1 | 0.090 ± 0.015 L mg^-1 s^-1 | 57 ± 17 µM |  |  |  |

From publication PMC3305904, “N^β-methylation changes the recognition pattern of aza-β^3-amino acid containing peptidomimetic substrates by protein kinase A” (Organic and Medicinal Chemistry Letters, 2011)
